From US20260125359A1, “HETEROARYL COMPOUNDS AS MULTI-TARGET PROTEIN KINASE INHIBITORS” (FUJIAN HAIXI PHARMACEUTICALS CO., LTD., priority 2023, published 2026)

System: M-NFS-60 cells
Experiment: M-NFS-60 cell in vitro assay (CCK, 48 h, M-CSF factor medium)
Assay type: cell-based
Details: M-NFS-60 cells; read-out: M-NFS-60cellassay IC50
Experimental: To determine the inhibitory activity of compounds on M-NFS-60 cells.
• M-NFS-60 cell line (ATCC, Cat. No.: CRL-1838) • RPMI-1640 medium (Gibco, domestic subpackage, Cat. No.: C11875500BT) • Recombinant Mouse CSF1/M-CSF (Sino Biological Inc., Cat. No.: 51112-MNAH) • PAN/Serum (BioTECH, Cat. No.: P30-2602) • Trypsin/0.05% Trypsin-EDTA (Gibco, Cat. No.: 25300-062) • 0.4% Trypan Blue (Sigma, Cat. No.: T8154-20 ml) • Penicillin-Streptomycin (Hyclone, Cat. No.: SV30010) • DMSO (Solarbio, Cat. No.: D8371) • PBS (Solarbio, Cat. No.: P1020) • CCK (AbMole BioScience, Cat. No.: M4839-500Tests)
• 1) M-CSF factor stock solution: take 10 μg of powdered m-CSF factor, add 0.4 ml of saline, formulate 25 ug/ml and store at −80° C. • 2) M-CSF factor (25 ng/ml) medium: • 1640 (Gibco)+10% PAN+100×Penicillin-Streptomycin+100×M-CSF stock solution • 3) Complete medium: • 1640 (Gibco)+10% PAN+100×Penicillin-Streptomycin • 4) Compound preparation: 2-3 mg of the compound was added to DMSO to formulate a 30 mM stock solution, −80° C. refrigerator storage
• 1) Cell resuscitation: the frozen cells in the cryovial were thawed rapidly by shaking in a 37° C. water bath, then 4 mL of medium was added. After mixing evenly, they were centrifuged at 125×g for 5 min, and the supernatant was discarded. The cells were resuspended and transferred to the culture flasks, and were cultured in a 5% CO2 fully saturated humidity incubator. • 2) Cell passaging: M-NFS-60 cells are semi-suspension cells, which were collected directly in a 15 mL centrifuge tube, centrifuged at 125×g for 5 min. and the supernatant was discarded. The cells were resuspended and passaged into new culture flasks at a ratio of 1:5 to 1:10. • 3) After the newly resuscitated cells were passaged 1-2 times for cell stabilization, compound inhibition assays were started when the cells were in the logarithmic growth phase. • (a) Cell collection and counting: the same as the cell passaging step, centrifuge in two tubes, one tube with M-CSF factor medium to resuspend the cells, the other tube with complete medium to resuspend the cells. Take 10 μL of cell suspension in each tube, and count the cells by Tepan blue staining. • (b) Dilute the cell solution according to the concentration of inoculated cells respectively, the concentration of M-NFS-60 cells inoculated with factor was 5.56×10^4 cells/mL, and the concentration of inoculated without factor was 5×10^4 cells/mL. • (c) Seed plate: 384 well plate inoculated with M-NFS-60 cells, 36 uL/well, triplicate wells, the number of inoculated cells was equivalent to 2000 cells/well, set with blank control, factor free negative control, normal control, DMSO control and experimental wells. The cells were placed in a 5% CO2 fully saturated humidity incubator for 4 h. • (d) Sampling compounds: 96 well plates were used for compound preparation. The compound solution prepared in advance was diluted to corresponding gradient concentration with DMSO. An appropriate amount of the diluted solution in the previous step was added to an equal volume of factor containing medium. The 96 well plates were centrifuged at 1000 rpm for 5 min, which played the role of defoaming and spinning down droplets and condensation. Remove the 384 well plate from the incubator, add the diluted compound solution into each well sequentially, 4 μL/well; DMSO wells and normal wells were added with corresponding factor containing medium, 4 μL/well. Then it was put into CO2 incubator for 48 h. • (e) After incubation for 48 h, CCK was added to each well, 4 uL, and the plates were placed in the incubator for another 2 h, and then the OD (optical density) value at 450 nm was measured by microplate reader.
The IC50 values for each test compound were fitted using professional graphing and analysis software.

Compound	IC50 [nM]
Cn1cc(-c2cncc(N[C@H]3CCc4c(C(=O)NC5CCCCC5)cccc43)n2)cn1 [Compound 27c]	< 50
CN(C)C(=O)c1cccc2c1CC[C@@H]2Nc1cncc(-c2cnn(C)c2)n1 [Compound 27d]	> 500
CC(C)NC(=O)c1cccc2c1CC[C@@H]2Nc1cncc(-c2cnn(C)c2)n1 [Compound 27e]	50 to 200
Cn1cc(-c2cncc(N[C@H]3CCc4c(C(=O)NC5CCC(F)(F)CC5)cccc43)n2)cn1 [Compound 27f]	< 50
CN1CCC(NC(=O)c2cccc3c2CC[C@@H]3Nc2cncc(-c3cnn(C)c3)n2)CC1 [Compound 27h]	> 500
Cn1cc(-c2cncc(N[C@H]3CCc4c(C(=O)NN5CC6CCCC6C5)cccc43)n2)cn1 (stereo partly drawn) [Compound 27i]	< 50
Cn1cc(-c2cncc(N[C@H]3CCc4c(C(=O)NN5CCCCC5)cccc43)n2)cn1 [Compound 27j]	> 500
Cn1cc(-c2cncc(N[C@H]3CCc4c(C(=O)Nc5cncc(Cl)c5)cccc43)n2)cn1 [Compound 27k]	< 50
Cn1cc(-c2cncc(N[C@H]3CCc4c(C(=O)NC5CCOCC5)cccc43)n2)cn1 [Compound 27l]	> 500
Cn1cc(-c2cncc(N[C@H]3CCc4c(C(=O)NC(C)(C)C(F)(F)F)cccc43)n2)cn1 [Compound 27m]	> 500
Cn1cc(-c2cncc(N[C@H]3CCc4c(C(=O)Nc5ccccc5F)cccc43)n2)cn1 [Compound 27n]	< 50
COc1cc(NC(=O)c2cccc3c2CC[C@@H]3Nc2cncc(-c3cnn(C)c3)n2)ccc1F [Compound 27o]	< 50
Cn1cc(-c2cncc(N[C@H]3CCc4c(NC(=O)c5cccc(CN6CCCCC6)c5)cccc43)c2)cn1 [Compound 28a]	> 500
Cn1cc(-c2cncc(N[C@H]3CCc4c(NC(=O)c5cccc(CN6CCCC6)c5)cccc43)c2)cn1 [Compound 28b]	> 500
COC(=O)Nc1cccc2c1CC[C@@H]2Nc1cncc(-c2cnn(C)c2)n1 [Compound 29, methyl(S)-(1-((6-(1-methyl-1H-pyrazol-4-yl)pyrazin-2-yl)amino)-2,3-dihydro-1H-inden-4-yl) carbamate]	> 500
Cc1cccc(C(=O)Nc2cccc3c2CC[C@@H]3Nc2cncc(Cl)n2)c1 [Compound 30, (S)—N-(1-((6-chloropyrazin-2-yl)amino)-2,3-dihydro-1H-inden-4-yl)-3-methylbenzamide]	< 50
Cc1cccc(C(=O)Nc2cccc3c2CC[C@@H]3Nc2cncc(N3CCN(C)CC3)n2)c1 [Compound 31, (S)-3-methyl-N-(1-((6-(4-methylpiperazin-1-yl)pyrazin-2-yl)amino)-2,3-dihydro-1H-inden-4-yl)benzamide]	200 to 500
Cc1cccc(C(=O)Nc2cccc3c2CC[C@@H]3Nc2cncc(N(C)CCN(C)C)n2)c1 [Compound 32, (S)—N-(1-((6-((2-(dimethylamino)ethyl)(methyl)amino)pyrazin-2-yl)amino)-2,3-dihydro-1H-inden-4-yl)-3-methylbenzamide]	> 500
Cc1cccc(NC(=O)c2cccc3c2CC[C@@H]3Nc2cncc(Cl)n2)c1 [Compound 33c, (S)-1-((6-chloropyrazin-2-yl)amino)-N-(m-tolyl)-2,3-dihydro-1H-indene-4-carboxamide]	< 50
Cc1cccc(NC(=O)c2cccc3c2CC[C@@H]3Nc2cncc(N3CCN(C)CC3)n2)c1 [Compound 34, (S)-1-((6-(4-methylpiperazin-1-yl)pyrazin-2-yl)amino)-N-(m-tolyl)-2,3-dihydro-1H-indene-4-carboxamide]	50 to 200
CC(C)c1csc(Nc2cccc3c2CC[C@@H]3Nc2cncc(-c3cnn(C)c3)n2)n1 [Compound 35, (S)—N^4-(4-isopropylthiazol-2-yl)-N^1-(6-(1-methyl-1H-pyrazol-4-yl)pyrazin-2-yl)-2,3-dihydro-1H-indene-1,4-diamine]	50 to 200

Compound	IC50 [nM]
Cc1csc(Nc2cccc3c2CC[C@@H]3Nc2cncc(-c3cnn(C)c3)n2)n1 [Compound 36a]	> 500
Cn1cc(-c2cncc(N[C@H]3CCc4c(Nc5nc(C6CC6)cs5)cccc43)n2)cn1 [Compound 36b]	50 to 200
Cn1cc(-c2cncc(N[C@H]3CCc4c(Nc5nc(C(C)(C)C)cs5)cccc43)n2)cn1 [Compound 36c]	< 50
CC(C)c1cnc(Nc2cccc3c2CC[C@@H]3Nc2cncc(-c3cnn(C)c3)n2)s1 [Compound 37, (S)—N^4-(5-isopropylthiazol-2-yl)-N^1-(6-(1-methyl-1H-pyrazol-4-yl)pyrazin-2-yl)-2,3-dihydro-1H-indene-1,4-diamine]	50 to 200
Cn1cc(-c2cncc(N[C@H]3CCc4c(Nc5ccn(C(C)(C)C)n5)cccc43)n2)cn1 [Compound 38, (S)—N^4-(1-(tert-butyl)-1H-pyrazol-3-yl)-N^1-(6-(1-methyl-1H-pyrazol-4-yl)pyrazin-2-yl)-2,3-dihydro-1H-indene-1,4-diamine]	50 to 200
Cn1cc(-c2cncc(N[C@H]3CCc4c(Nc5cnn(C(C)(C)C)c5)cccc43)n2)cn1 [Compound 39a]	> 500
Cc1cncc(Nc2cccc3c2CC[C@@H]3Nc2cncc(-c3cnn(C)c3)n2)c1 [Compound 39b]	> 500
Cc1c(Nc2cccc3c2CC[C@@H]3Nc2cncc(-c3cnn(C)c3)c2)noc1C(C)(C)C [Compound 40, (S)—N^4-(5-(tert-butyl)-4-methylisoxazol-3-yl)-N^1-(5-(1-methyl-1H-pyrazol-4-yl)pyridin-3-yl)-2,3-dihydro-18-indene-1,4-diamine]	< 50
Cc1c(Nc2cccc3c2CC[C@@H]3Nc2cncc(Cl)c2)noc1C(C)(C)C [Compound 40d, (S)—N^4-(5-(ter-butyl)-4-methylisoxazol-3-yl)-N^1-(5-chloropyridin-3-yl)-2,3-dihydro-1H-indene-1,4-diamine]	50 to 200
CC(C)(C)c1cc(Nc2cccc3c2CC[C@@H]3Nc2cncc(Cl)c2)no1 [Compound 42a]	50 to 200
CC(C)c1cc(Nc2cccc3c2CC[C@@H]3Nc2cncc(Cl)c2)no1 [Compound 42b]	50 to 200
CC(C)(CO)c1cc(Nc2cccc3c2CC[C@@H]3Nc2cncc(Cl)c2)no1 [Compound 42c]	< 50
Cn1nc(Nc2cccc3c2CC[C@@H]3Nc2cncc(Cl)c2)cc1C(F)(F)F [Compound 42d]	> 500
CC(C)(C)c1cc(Nc2cccc3c2CC[C@@H]3Nc2cncc(Cl)c2)n[nH]1 [Compound 42e]	> 500
Clc1cncc(N[C@H]2CCc3c(Nc4nc5c(s4)CCCC5)cccc32)c1 [Compound 42f]	> 500
CN1CCc2nc(Nc3cccc4c3CC[C@@H]4Nc3cncc(Cl)c3)sc2C1 [Compound 42g]	> 500
CC(C)(C)c1ccnc(Nc2cccc3c2CC[C@@H]3Nc2cncc(Cl)c2)n1 [Compound 42h]	> 500
CC(C)(C)c1nnc(Nc2cccc3c2CC[C@@H]3Nc2cncc(Cl)c2)s1 [Compound 42i]	50 to 200
Clc1cncc(N[C@H]2CCc3c(Nc4noc5ccccc45)cccc32)c1 [Compound 42j]	> 500
Cn1cc(-c2cncc(N[C@H]3CCc4c(Nc5nc(C(C)(C)C)no5)cccc43)c2)cn1 [Compound 42k]	200 to 500

Same assay, conditions: read-out: M-NFS-60cellassay IC50(nM)

Compound	IC50 [nM]
Cc1cccc(NC(=O)c2cccc3c2CC[C@@H]3Nc2cncc(C3=CCN(C)CC3)n2)c1 [Compound 33, (S)-1-((6-(1-methyl-1,2,3,6-tetrahydropyridin-4-yl)pyrazin-2-yl)amino)-N-(m-tolyl)-2,3-dihydro-1H-indene-4-carboxamide]	50 to 200
